Assay results reported in PMC5379148, “A phase I study of intravenous and oral rucaparib in combination with chemotherapy in patients with advanced solid tumours” (British Journal of Cancer, 2017).

Test: Plasma pharmacokinetics of rucaparib (LC-MS/MS, noncompartmental)
Details: for Vd / AUC(0-t) / AUC(0-inf) / Cmax / Tmax / bioavailability / Tmax at 14 days: human, plasma; for AUC(0-inf): AUCinf; for Tmax / Tmax at 14 days: median (minimum, maximum)
[1] = iv, 12 mg, single i.v. dose 12 mg, day –10, geometric mean (CV%)
[2] = iv, 18 mg, single i.v. dose 18 mg, day –10, geometric mean (CV%)
[3] = iv, 24 mg, single i.v. dose 24 mg, day –10, geometric mean (CV%)
[4] = iv, 27 mg, single i.v. dose 27 mg, day –10, geometric mean (CV%)
[5] = iv, 40 mg, single i.v. dose 40 mg, day –10, geometric mean (CV%)
[6] = po, 12 mg, single oral dose 12 mg, day –5, geometric mean (CV%)
[7] = po, 36 mg, single oral dose 36 mg, day –5, geometric mean (CV%)
[8] = po, 48 mg, single oral dose 48 mg, day –5, geometric mean (CV%)
[9] = po, 72 mg, single oral dose 72 mg, day –5, geometric mean (CV%)
[10] = po, 80 mg, single oral dose 80 mg, day 1, geometric mean (CV%)
[11] = po, 80 mg, single oral dose 80 mg, day –5, geometric mean (CV%)
[12] = po, 120 mg, single oral dose 120 mg, day 1, geometric mean (CV%)
[13] = po, 120 mg, single oral dose 120 mg, day –5, geometric mean (CV%)
[14] = po, 180 mg, single oral dose 180 mg, day –5, geometric mean (CV%)
[15] = po, 240 mg, single oral dose 240 mg, day 1, geometric mean (CV%)
[16] = po, 240 mg, single oral dose 240 mg, day –5, geometric mean (CV%)
[17] = po, 360 mg, single oral dose 360 mg, day 1, geometric mean (CV%)
[18] = po, 360 mg, single oral dose 360 mg, day –5, geometric mean (CV%)

Method: On cycle 1 days −10, −5, 1, and 14, plasma samples were obtained from all patients before rucaparib dosing and at 15 and 30 min, and at 1, 1.5, 2.5, 4, 6, 10, and 24 h after the start of the rucaparib administration (i.v. infusion (day −10) or oral (days −5, 1, and 14)). On cycle 1 days −10 and −5, samples were also obtained 48 h after the start of rucaparib administration. Rucaparib concentration was determined using liquid chromatography with tandem mass spectrometry.
Plasma clearance or apparent plasma clearance and steady-state volume of distribution were calculated for rucaparib. The oral bioavailability of rucaparib was calculated as the ratio of dose-normalised AUC0–t or AUCinf (data permitting) determined using oral rucaparib PK data collected on cycle 1 day −5 to that determined using the i.v. PK data collected on cycle 1 day −10. Pharmacokinetic parameters were summarised with the geometric mean and the coefficient of variation (CV). The ratio of Cmax and AUC0–24 of rucaparib administered in combination with chemotherapies to those of rucaparib alone was calculated and summarised, with mean and CV% to evaluate the effect of chemotherapies on the PK of rucaparib for both the i.v. dose (day −10) and oral dose (day −5).
The oral bioavailability of rucaparib was calculated as the ratio of dose-normalised AUC0-t or AUCinf (data permitting) determined using oral rucaparib PK data collected on cycle 1 day –5 to that determined using the intravenous PK data collected on cycle 1 day –10. The tmax was summarised with medians and ranges. The accumulation ratio after multiple oral rucaparib dosing (once daily) was assessed as the ratio of the AUC0-24 determined using PK collected on cycle 1 day 14 to the AUC0-24 after the cycle 1 day –5 lead-in dose. The ratio of the Cmax on day 14 to the Cmax on day –5 was also calculated. Additionally, the ratio of the AUC0-24 on cycle 1 day 14 to the AUCinf after the cycle 1 day –5 lead-in dose was calculated as an indication for any time-dependent change in rucaparib PK.

Structure (SMILES): CNCc1ccc(-c2[nH]c3cc(F)cc4c3c2CCNC4=O)cc1 [rucaparib]
- impact of chemotherapy coadministration on i.v. rucaparib PK (carboplatin+paclitaxel, cisplatin+pemetrexed, or epirubicin+cyclophosphamide): No apparent impact
- Vd (iv, 12 mg): 258 L
- AUC(0-t) (iv, 12 mg, AUC0-24, single i.v. dose 12 mg, day –10, geometric mean (CV%)): 549 ng·h/mL
- AUC(0-inf) [1]: 740 ng·h/mL
- Cmax [1]: 324 ng/mL
- Tmax (iv, 12 mg, single i.v. dose 12 mg, day –10): 0.5 h
- Vd (iv, 18 mg): 234 L
- AUC(0-t) (iv, 18 mg, AUC0-24, single i.v. dose 18 mg, day –10, geometric mean (CV%)): 812 ng·h/mL
- AUC(0-inf) [2]: 976 ng·h/mL
- Cmax [2]: 498 ng/mL
- Tmax (iv, 18 mg, single i.v. dose 18 mg, day –10): 0.5 h
- Vd (iv, 24 mg): 262 L
- AUC(0-t) (iv, 24 mg, AUC0-24, single i.v. dose 24 mg, day –10, geometric mean (CV%)): 1220 ng·h/mL
- AUC(0-inf) [3]: 1710 ng·h/mL
- Cmax [3]: 627 ng/mL
- Tmax (iv, 24 mg, single i.v. dose 24 mg, day –10): 0.5 h
- Vd (iv, 27 mg): 191 L
- AUC(0-t) (iv, 27 mg, AUC0-24, single i.v. dose 27 mg, day –10, geometric mean (CV%)): 1450 ng·h/mL
- AUC(0-inf) [4]: 1900 ng·h/mL
- Cmax [4]: 866 ng/mL
- Tmax (iv, 27 mg, single i.v. dose 27 mg, day –10): 0.38 h
- Vd (iv, 40 mg): 113 L
- AUC(0-t) (iv, 40 mg, AUC0-24, single i.v. dose 40 mg, day –10, geometric mean (CV%)): 2530 ng·h/mL
- AUC(0-inf) [5]: 2880 ng·h/mL
- Cmax [5]: 1610 ng/mL
- Tmax (iv, 40 mg, single i.v. dose 40 mg, day –10): 0.5 h
- bioavailability (po): 36%
- bioavailability (po, 12 mg): 33.4%
- AUC(0-t) (po, 12 mg, AUC0-24, single oral dose 12 mg, day –5, geometric mean (CV%)): 155 ng·h/mL
- AUC(0-inf) [6]: 225 ng·h/mL
- Cmax [6]: 24 ng/mL
- Tmax (po, 12 mg, single oral dose 12 mg, day –5): 1 h
- bioavailability (po, 36 mg): 45.3%
- AUC(0-t) (po, 36 mg, AUC0-24, single oral dose 36 mg, day –5, geometric mean (CV%)): 696 ng·h/mL
- AUC(0-inf) [7]: 1100 ng·h/mL
- Cmax [7]: 90 ng/mL
- Tmax (po, 36 mg, single oral dose 36 mg, day –5): 2 h
- bioavailability (po, 48 mg): 33.6%
- AUC(0-t) (po, 48 mg, AUC0-24, single oral dose 48 mg, day –5, geometric mean (CV%)): 620 ng·h/mL
- AUC(0-inf) [8]: 922 ng·h/mL
- Cmax [8]: 80 ng/mL
- Tmax (po, 48 mg, single oral dose 48 mg, day –5): 1.25 h
- bioavailability (po, 72 mg): 30.1%
- AUC(0-t) (po, 72 mg, AUC0-24, single oral dose 72 mg, day –5, geometric mean (CV%)): 893 ng·h/mL
- AUC(0-inf) [9]: 1090 ng·h/mL
- Cmax [9]: 108 ng/mL
- Tmax (po, 72 mg, single oral dose 72 mg, day –5): 2 h
- bioavailability (po, 80 mg): 30.7%
- AUC(0-t) (po, 80 mg, AUC0-24, oral 80 mg q.d. for 14 days, n = 1): 2210 ng·h/mL
- AUC(0-t) (po, 80 mg, AUC0-24, single oral dose 80 mg, day 1, geometric mean (CV%)): 1380 ng·h/mL
- AUC(0-t) (po, 80 mg, AUC0-24, single oral dose 80 mg, day –5, geometric mean (CV%)): 1270 ng·h/mL
- AUC(0-inf) [10]: 1700 ng·h/mL
- AUC(0-inf) [11]: 1920 ng·h/mL
- Cmax (po, 80 mg, oral 80 mg q.d. for 14 days, n = 1): 190 ng/mL
- Cmax [10]: 99 ng/mL
- Cmax [11]: 114 ng/mL
- Tmax at 14 days (po, 80 mg, oral 80 mg q.d. for 14 days): 2.5 h
- Tmax (po, 80 mg, single oral dose 80 mg, day 1): 4 h
- Tmax (po, 80 mg, single oral dose 80 mg, day –5): 2.5 h
- bioavailability (po, 120 mg): 41.1%
- AUC(0-t) (po, 120 mg, AUC0-24, oral 120 mg q.d. for 14 days, geometric mean (CV%)): 4040 ng·h/mL
- AUC(0-t) (po, 120 mg, AUC0-24, single oral dose 120 mg, day 1, geometric mean (CV%)): 3260 ng·h/mL
- AUC(0-t) (po, 120 mg, AUC0-24, single oral dose 120 mg, day –5, geometric mean (CV%)): 2920 ng·h/mL
- AUC(0-inf) [12]: 3770 ng·h/mL
- AUC(0-inf) [13]: 4070 ng·h/mL
- Cmax (po, 120 mg, oral 120 mg q.d. for 14 days, geometric mean (CV%)): 375 ng/mL
- Cmax [12]: 344 ng/mL
- Cmax [13]: 274 ng/mL
- Tmax at 14 days (po, 120 mg, oral 120 mg q.d. for 14 days): 2.5 h
- Tmax (po, 120 mg, single oral dose 120 mg, day 1): 4 h
- Tmax (po, 120 mg, single oral dose 120 mg, day –5): 4 h
- AUC(0-t) (po, 180 mg, AUC0-24, oral 180 mg q.d. for 14 days, geometric mean (CV%)): 7660 ng·h/mL
- AUC(0-t) (po, 180 mg, AUC0-24, single oral dose 180 mg, day 1, geometric mean (CV%)): 5920 ng·h/mL
- AUC(0-t) (po, 180 mg, AUC0-24, single oral dose 180 mg, day –5, geometric mean (CV%)): 5610 ng·h/mL
- AUC(0-inf) [14]: 8410 ng·h/mL
- Cmax (po, 180 mg, oral 180 mg q.d. for 14 days, geometric mean (CV%)): 454 ng/mL
- Cmax (po, 180 mg, single oral dose 180 mg, day 1, geometric mean (CV%)): 527 ng/mL
- Cmax [14]: 410 ng/mL
- Tmax at 14 days (po, 180 mg, oral 180 mg q.d. for 14 days): 4 h
- Tmax (po, 180 mg, single oral dose 180 mg, day 1): 6 h
- Tmax (po, 180 mg, single oral dose 180 mg, day –5): 4 h
- AUC(0-t) (po, 240 mg, AUC0-24, oral 240 mg q.d. for 14 days, geometric mean (CV%)): 7560 ng·h/mL
- AUC(0-t) (po, 240 mg, AUC0-24, single oral dose 240 mg, day 1, geometric mean (CV%)): 5130 ng·h/mL
- AUC(0-t) (po, 240 mg, AUC0-24, single oral dose 240 mg, day –5, geometric mean (CV%)): 5030 ng·h/mL
- AUC(0-inf) [15]: 4370 ng·h/mL
- AUC(0-inf) [16]: 6990 ng·h/mL
- Cmax (po, 240 mg, oral 240 mg q.d. for 14 days, geometric mean (CV%)): 527 ng/mL
- Cmax [15]: 493 ng/mL
- Cmax [16]: 442 ng/mL
- Tmax at 14 days (po, 240 mg, oral 240 mg q.d. for 14 days): 4 h
- Tmax (po, 240 mg, single oral dose 240 mg, day 1): 4 h
- Tmax (po, 240 mg, single oral dose 240 mg, day –5): 4 h
- AUC(0-t) (po, 360 mg, AUC0-24, oral 360 mg q.d. for 14 days, geometric mean (CV%)): 15600 ng·h/mL
- AUC(0-t) (po, 360 mg, AUC0-24, single oral dose 360 mg, day 1, geometric mean (CV%)): 8280 ng·h/mL
- AUC(0-t) (po, 360 mg, AUC0-24, single oral dose 360 mg, day –5, geometric mean (CV%)): 9170 ng·h/mL
- AUC(0-inf) [17]: 9980 ng·h/mL
- AUC(0-inf) [18]: 11000 ng·h/mL
- Cmax (po, 360 mg, oral 360 mg q.d. for 14 days, geometric mean (CV%)): 1050 ng/mL
- Cmax [17]: 697 ng/mL
- Cmax [18]: 814 ng/mL
- Tmax at 14 days (po, 360 mg, oral 360 mg q.d. for 14 days): 4 h
- Tmax (po, 360 mg, single oral dose 360 mg, day 1): 4 h
- Tmax (po, 360 mg, single oral dose 360 mg, day –5): 4 h
